According to patent US20240335425A1, “PHARMACEUTICAL COMPOSITIONS OF ALPHA-2-ADRENERGIC RECEPTOR AGONISTS AND THEIR USE FOR IMPROVING VISION” (Allergan, Inc., priority 2020, published 2024):
Like-named read-outs stand apart in the source and are kept apart here.

Assays:
[1] = Experimental: Aliquots of the PBS only curve were quenched at time zero to be used as stability controls and calibration standards. Following centrifugation, samples were analyzed by LC-MS/MS bioanalysis. Back-calculated concentrations using the assay PBS curve were used for binding and stability calculations.
[2] = target: T1, bovine alpha adrenergic 1A receptor (Bos taurus, UniProt P18130); assay: FLIPR calcium assay, HEK293 cells stably expressing bovine alpha 1A receptor; type: cell-based; details: HEK293 stable cell line, peak calcium signal; read-out: bovine alpha1A EC50 (nm)
T1 construct: expressed in transfected cells
T1 sequence (P18130 1-466): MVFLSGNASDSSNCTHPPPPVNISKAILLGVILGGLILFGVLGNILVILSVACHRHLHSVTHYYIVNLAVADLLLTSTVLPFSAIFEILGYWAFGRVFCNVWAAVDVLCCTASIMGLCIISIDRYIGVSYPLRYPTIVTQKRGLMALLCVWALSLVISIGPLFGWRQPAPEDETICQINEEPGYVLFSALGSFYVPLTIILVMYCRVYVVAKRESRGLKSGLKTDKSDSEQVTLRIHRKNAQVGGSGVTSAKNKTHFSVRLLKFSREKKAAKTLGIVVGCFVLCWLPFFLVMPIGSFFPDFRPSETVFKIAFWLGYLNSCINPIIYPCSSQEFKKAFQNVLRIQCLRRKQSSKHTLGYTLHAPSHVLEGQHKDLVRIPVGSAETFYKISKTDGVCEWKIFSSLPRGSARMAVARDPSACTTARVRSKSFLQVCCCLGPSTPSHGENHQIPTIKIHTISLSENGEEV
Experimental: (§1) An in vitro FLIPR (fluorometric image plate reader) assay was performed on several compounds, including the compound of Formula I (entry 1 in Table 1).
Specifically, four HEK293 stable cell lines were used in the FLIPR assay. The HEK293 cell line which stably expressed the bovine alpha adrenergic 1A receptor was used to characterize the alpha1 pharmacology. The alpha-2 adrenergic receptor family is a G coupled G-protein receptor. Therefore, in order to use these cell lines in the calcium based FLIPR assay, the chimeric G-protein Gqi5 was used to force the coupling of the human alpha-2A, alpha-2B, and alpha-2C receptors to the calcium pathway. […]
(§2) The receptor activation was initiated by the addition of the appropriate dilutions of compounds and the transient calcium signal was captured. The peak height of the calcium curve was determined and utilized for calculation of EC50 and relative efficacy values using Activity Base software. EC50 was calculated using a 4 Parameter Logistic Equation: y=A+((B−A)/(1+((C/x)^D))) where A and B represents the bottom and top plateau of the curve; C represents the EC50 value; D represents the slope factor; and x and y represent the original x (drug concentration) and y (fluorescence signal, RFU) values.

healthy participants = assay: Clinical Study 1 in healthy individuals, single ascending dose; type: in vivo, human; details: left eye, 0.01% to 0.1% (w/v)
Excerpt: In this study, 36 healthy participants (male and female; 40 to 65 years of age) are randomized to participate in single-ascending dose cohorts (designated Cohorts 1, 2, and 3 as shown in Table 9 below) to evaluate safety, tolerability, pharmacokinetics, and target engagement of the compound of Formula I. In each cohort of this study 12 participants are randomized in a 3:1 ratio to receive an ophthalmic solution containing the compound of Formula I (9 participants) or vehicle (3 participants). Participants that are randomized to receive the ophthalmic solution containing the compound of Formula I are administered a single drop of the ophthalmic solution containing the compound of Formula I at doses ranging from 0.01% (w/v) to 0.1% (w/v) (Formulations A-C; see Examples 8-10), with the option of also using a 0.3% (w/v) dose (Formulation D; see Example 11), in the left eye, as indicated in Table 7 below (“SD” means single dose and “OS” means left eye).
Each participant is admitted to the study site on the evening before dosing (Day −1). […]
Safety and tolerability are evaluated by monitoring participants in the three cohorts of this study for exhibition/reporting of adverse events and monitoring characteristics/assessments such as vital signs, electrocardiogram measurements, clinical laboratory assessments, study intervention tolerability and drop comfort assessments, intraocular pressure measurements, slit-lamp biomicroscopy, and dilated funduscopic examination. Systemic and local pharmacokinetics of the compound of Formula I are evaluated by measuring plasma and tear concentrations of the compound of Formula I in the participants and also determining pharmacokinetic parameters such as area under the curve, clearance, half-life, maximum concentration, time to maximum concentration. Target engagement is measured by measuring the pupil size of the participants during the study. […]

Dutch Belted rabbits = assay: In vivo rabbit miosis model (pupil diameter after single topical dose); details: for animals with greater than 2.5 mm reduction in pupil size from baseline: 0.1% w:v, scotopic (<10 lux), n=6; for miotic efficacy compared with other alpha adrenergic receptor agonists: low-light conditions (2-10 Lux)
Experimental: Female Dutch Belted rabbits (Covance, Princeton, New Jersey) weighing between 2-4 kg were used for these studies. […] For topical dosing, eye drops (volume=35 μl) were instilled into the lower conjunctival sac of the test eye.
Pupil diameter was measured in both the treated and untreated eye with an Optistick to the nearest 0.5 mm. […]

[3] = system: participants diagnosed with presbyopia; assay: Clinical Study 2 in presbyopes, once daily for 14 days; type: in vivo, human
Excerpt: In this study, approximately 108 participants diagnosed with presbyopia (male and female; 40 to 65 years of age) are selected to participate.
Cohorts 4, 5, and 6 (Part A) are multiple ascending dose cohorts in which participants are randomized to receive either the compound of Formula I at doses ranging from 0.01% to 0.1% or vehicle once daily in both eyes for 14 days. Each cohort in Part A consists of 9 participants who receive active intervention (the compound of Formula I) and 3 participants that receive vehicle in order to evaluate safety, tolerability, pharmacokinetics, and clinical efficacy of the compound of Formula I. As with Example 8, after each cohort is completed, the independent data monitoring committee reviews the safety, pharmacokinetic, and target engagement data to determine if it is acceptable to proceed to the next planned dosing cohort. The dose of the compound of Formula I in Part B (Cohorts 7 and 8) is selected by the data monitoring committee after Cohort 6 has completed.
Cohort 7 is a single-masked, active comparator cohort that includes approximately 60 masked participants with presbyopia randomized 1:1 to receive either pilocarpine 1.25% (w/v) ophthalmic solution or an ophthalmic solution of the compound of Formula I administered at the dose strength recommended by the data monitoring committee for 14 days. Safety, tolerability, and efficacy is assessed after topical ocular administration of the compound of Formula I compared with pilocarpine 1.25%. Common adverse events associated with pilocarpine (particularly when administered to the eye) include, for example, headache, brow ache, accommodative change, eye irritation, eye pain, blurred vision, visual impairment, ocular blurring, ocular discomfort, blurry vision, light sensitivity, stinging, and itching.
Cohort 8 is a cohort to evaluate safety, tolerability, pharmacokinetics, and efficacy of the compound of Formula I administered at the dose strength recommended by the data monitoring committee compared with vehicle for 14 days in participants with presbyopia who wear contact lenses (9 participants receive the compound of Formula I and 3 participants receive vehicle).
In all cohorts of this study (Cohorts 4 to 8), participants receive their first dose in clinic on Day 1, and stay in clinic for safety, pharmacokinetic, and efficacy evaluations for 10 hours post-dose. The participants then return for dosing and safety evaluations once daily from Day 2 to Day 7. They then receive multidose bottles for single unit of use for at-home dosing from Days 8 to 13 and return to the clinic on Day 14 for dosing as well as safety, tolerability, pharmacokinetic (Cohorts 4 to 6, and 8 only), and efficacy evaluations for 10 hours post-dose. On Day 30, participants return for a safety follow-up and close out visit.
In Parts A and B of this study, safety and tolerability are evaluated as in Example 12 (i.e. by monitoring participants in the three cohorts for exhibition/reporting of adverse events and monitoring the characteristics/assessments as are monitored in Example 12), with the additional characteristics/assessments of contrast sensitivity, photopic (e.g. ≥80 cd/m^2; 251 lux at target) and mesopic (e.g. 3.2 to 3.5 cd/m^2; 10 to 11 lux at target) high contrast corrected distance visual acuity (each eye and binocularly), manifest refraction (mesopic and photopic) also being measured in Part A. Systemic and local pharmacokinetics of the compound of Formula I are evaluated by measuring plasma and tear concentrations of the compound of Formula I in the participants and also determining pharmacokinetic parameters as is done in Example 12. Target engagement is measured by measuring the pupil size of the participants during the study as is done in Example 12. […]

human alpha-2A receptor = target: T2, human alpha-2A receptor (Homo sapiens, UniProt P08913); assay: FLIPR calcium assay, HEK293 cells with human alpha-2A receptor coupled via chimeric Gqi5; type: cell-based
T2 construct: expressed in transfected cells
T2 sequence (P08913 1-465): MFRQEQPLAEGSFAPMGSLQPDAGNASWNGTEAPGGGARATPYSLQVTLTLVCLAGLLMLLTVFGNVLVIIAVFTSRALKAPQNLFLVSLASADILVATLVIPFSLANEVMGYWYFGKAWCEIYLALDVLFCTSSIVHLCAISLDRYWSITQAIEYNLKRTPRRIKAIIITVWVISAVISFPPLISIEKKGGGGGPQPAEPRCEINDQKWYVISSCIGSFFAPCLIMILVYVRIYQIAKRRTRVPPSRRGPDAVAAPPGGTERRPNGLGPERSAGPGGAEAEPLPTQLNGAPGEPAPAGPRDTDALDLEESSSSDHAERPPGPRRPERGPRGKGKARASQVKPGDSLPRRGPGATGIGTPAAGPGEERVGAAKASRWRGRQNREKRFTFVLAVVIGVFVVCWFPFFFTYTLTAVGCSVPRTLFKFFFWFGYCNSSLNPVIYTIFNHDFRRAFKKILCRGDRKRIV
Experimental: as §1
Specifically, four HEK293 stable cell lines were used in the FLIPR assay. The HEK293 cell line which stably expressed the bovine alpha adrenergic 1A receptor was used to characterize the alpha1 pharmacology. The alpha-2 adrenergic receptor family is a G coupled G-protein receptor. Therefore, in order to use these cell lines in the calcium based FLIPR assay, the chimeric G-protein Gqi5 was used to force the coupling of the human alpha-2A, alpha-2B, and alpha-2C receptors to the calcium pathway. Cells were plated, in triplicate, in poly-D-lysine coated 384-well plates at 25,000 cells per well and grown overnight in DMEM supplemented with 10% fetal bovine serum. For FLIPR evaluation, cells were washed twice with HBSS/HEPES buffer (1× Hanks Buffered Salt Solution, 20 mM HEPES, pH 7.4) prior to the addition of Fluo-4-AM (4 uM Fluo-4-AM, 0.04% pluronic acid in HBSS/HEPES buffer), a calcium-sensitive dye. Cells were loaded with dye for 40 minutes at 37° C., and then washed 4 times with HBSS/HEPES buffer to remove the excess dye. The test compounds were profiled at concentrations between 0.64 nM and 10,000 nM using a […] dilution factor.
as §2

presbyopic patients = details: different lighting conditions; cited from earlier work
[4] = Part A, bilaterally for 14 days
[5] = Part B, Cohort 8, contact lens wearers, 14 days
[6] = HEK293 stable cell line with Gqi5, peak calcium signal, read-out: human alpha2A EC50 (nm)

In the case of `Cc1c(N=C2NCCN2)ccc2[nH]cnc12` [Compound 1], the “melanin binding (in words)” value [1] is reported as “no significant melanin binding”, the EC50 [2] is reported as 286 nM and the “pupil diameter compared with vehicle” value (healthy participants) is reported as “decrease in pupil diameter”. For the same compound, the safety and tolerability (healthy participants) was “acceptable safety and tolerability profiles”, the systemic exposures (healthy participants) was “sufficient safety margins” and the “animals with greater than 2.5 mm reduction in pupil size from baseline” value (Dutch Belted rabbits; after 6 hours) was “more than half”. The “animals with greater than 2.5 mm reduction in pupil size from baseline” value (Dutch Belted rabbits; two hours after dosing) was “virtually all animals”, the “miotic action (peak pupil constriction and duration)” value (Dutch Belted rabbits; room lighting conditions, versus brimonidine) was “greater miotic action than brimonidine” and the “effect on pupil constriction compared to Compound 3” value (Dutch Belted rabbits; topical dose) was “greater effect on pupil constriction”. The “pupil constriction at 9 hours after dosing” value (Dutch Belted rabbits; topical dose, 9 hours) was “significant pupil constriction”, the “miotic efficacy compared with other alpha adrenergic receptor agonists” value (Dutch Belted rabbits; topical dose) was “best miotic effect” and the “depth of focus compared with vehicle” value [3, 4] was “improved depth of focus”. The “distance corrected near visual acuity compared with vehicle” value [3, 4] was “numeric improvement (e.g. two or three lines)”, the “patient reported outcome questionnaires/questions compared with vehicle” value [3, 4] was “more positive answers” and the “pupil diameter compared with vehicle” value [3, 4] was “decrease in pupil diameter”. The systemic exposures [3, 4] was “sufficient safety margins”, the safety and tolerability ([3]; Part A, bilaterally for 14 days, 0.01% to 0.1%) was “acceptable (or improved) safety and tolerability profiles” and the “safety and tolerability compared with 1.25% (w/v) pilocarpine” value ([3]; Part B, Cohort 7) was “acceptable (or improved”. For the same compound, the “depth of focus compared with vehicle” value [3, 5] was “improved depth of focus”, the “distance corrected near (and/or intermediate) visual acuity compared with vehicle” value [3, 5] was “numeric improvement (e.g. two or three lines)” and the “patient reported outcome questionnaires/questions compared with vehicle” value [3, 5] was “more positive answers”. The safety and tolerability ([3]; Part B, both cohorts, bilaterally for 14 days) was “acceptable safety and tolerability profiles” and the EC50 (human alpha-2A receptor; [6]) was 0.7 nM.
With `CCc1c(N=C2NCCN2)ccc2[nH]cnc12` [Compound 2, reference compound] the “miotic efficacy compared with other alpha adrenergic receptor agonists” value (Dutch Belted rabbits; topical dose) was “much less than brimonidine” and the EC50 (human alpha-2A receptor) was 11 nM.
With `Brc1c(N=C2NCCN2)ccc2[nH]cnc12` [Compound 3, reference compound] the “miotic efficacy compared with other alpha adrenergic receptor agonists” value (Dutch Belted rabbits; topical dose) was “much less than brimonidine” and the EC50 (human alpha-2A receptor; [6]) was 1 nM.
For `Brc1c(NC2=NCCN2)ccc2nccnc12` [Compound 4, brimonidine, reference compound], the “average pupil size after brimonidine” value (presbyopic patients) is given as 3.4 mm, the “melanin binding (in words)” value [1] is given as “much more significant binding” and the EC50 [2] is given as 1200 nM. The “animals with greater than 2.5 mm reduction in pupil size from baseline” value (Dutch Belted rabbits; after 6 hours) was “virtually none of the animals” and the “animals with greater than 2.5 mm reduction in pupil size from baseline” value (Dutch Belted rabbits; half hour after dosing) was “much less than half of the animals”.
